We go through 26 compounds from publication PMC9502202, “Discovery of Novel Potential Aphid Repellents: Geranic Acid Esters Containing Substituted Aromatic Rings” (Molecules, 2022).

Structures are written as SMILES.

In the assay the test system is Acyrthosiphon pisum (A. pisum). Kind of assay: Repellent activity test, glass two-way olfactometer. The class given is in vivo. The following applies: 0.25 h, wingless A. pisum, 2.5 µL of 2000 mg/L test solution in n-hexane on filter paper, 15 min, RP = (C − T)/(C + T) × 100%, mean ± standard deviation, read-out: RP (%) repellency proportion. As for the experimental part:
The behavioral response of A. pisum to 5a-5x was investigated with a glass two-way olfactometer, and the aphid-repellent activity was carried out according to our previously published method. The aphids were reared in a growth chamber (at 23 ± 1 °C, with a […]:8D photoperiod and 70% relative humidity) at China Agricultural University. The compounds were weighed, dissolved in n-hexane, and prepared into a test solution with a concentration of 2000 mg/L using n-hexane as a blank control. About 20 wingless A. pisum were placed through the release port and each arm was pumped with 0.2 L/min of activated carbon and distilled water. One arm was chosen as the “treatment” (T) arm and another was the “control” (C) arm. For the “T” arm, 2.5 μL of test solutions were applied to filter paper strips (1 cm^2 diameter), and 2.5 μL of n-hexane was applied for the “C” arm. The number of aphids in each direction was recorded for 15 min at 2 cm from the center of the horizontal arm. The olfactometer was washed with ethanol, the filter paper was replaced, and the two arms were switched and the experiment was repeated four times for each treatment. The repellent activity was evaluated using RP as the formula RP = (C - T)/(C+T) × 100%, where T and C mean the number of aphids in the treatment and control arm, respectively. The RP values of the derivatives were statistically analyzed with SPSS 24.0 (SPSS Inc., Chicago, IL, USA) using a one-way analysis of variance (ANOVA), followed by a Duncan's test with a significance set at p < 0.05.

As to `CC(C)=CCC/C(C)=C/C(=O)Oc1ccccc1` [5a], the pest or weed control at 2000 µg/mL came out at 38.1 ± 2.38%.
In the case of `CC(C)=CCC/C(C)=C/C(=O)Oc1ccccc1C` [5b, 2-tolyl (E)-3,7-dimethylocta-2,6-dienoate] it was 35.2 ± 2.65%.
In the case of `CC(C)=CCC/C(C)=C/C(=O)Oc1cccc(C)c1` [5c, 3-tolyl (E)-3,7-dimethylocta-2,6-dienoate] it was 39.8 ± 1.95%; in that of `CC(C)=CCC/C(C)=C/C(=O)Oc1ccc(C)cc1` [5d, 4-tolyl (E)-3,7-dimethylocta-2,6-dienoate], 38.7 ± 2.75%.
As to `COc1ccccc1OC(=O)/C=C(\C)CCC=C(C)C` [5e, 2-methoxyphenyl (E)-3,7-dimethylocta-2,6-dienoate], the pest or weed control at 2000 µg/mL came to 37.4 ± 2.08%.
For `COc1cccc(OC(=O)/C=C(\C)CCC=C(C)C)c1` [5f, 3-methoxyphenyl (E)-3,7-dimethylocta-2,6-dienoate], the pest or weed control at 2000 µg/mL stood at 55.6%.
In the case of `COc1ccc(OC(=O)/C=C(\C)CCC=C(C)C)cc1` [5g, 4-methoxyphenyl (E)-3,7-dimethylocta-2,6-dienoate] it was 43.6 ± 3.09%.
Regarding `CC(C)=CCC/C(C)=C/C(=O)Oc1ccccc1Cl` [5h, 2-chlorophenyl (E)-3,7-dimethylocta-2,6-dienoate], the pest or weed control at 2000 µg/mL turned out to be 31.8 ± 1.31%.
Turning to `CC(C)=CCC/C(C)=C/C(=O)Oc1cccc(Cl)c1` [5i, 3-chlorophenyl (E)-3,7-dimethylocta-2,6-dienoate], the pest or weed control at 2000 µg/mL was determined as 51.4 ± 1.2%.
Turning to `CC(C)=CCC/C(C)=C/C(=O)Oc1ccc(Cl)cc1` [5j, 4-chlorophenyl (E)-3,7-dimethylocta-2,6-dienoate], the pest or weed control at 2000 µg/mL is 38.7 ± 2.75%.
In the case of `CC(C)=CCC/C(C)=C/C(=O)Oc1ccccc1F` [5k, 2-fluorophenyl (E)-3,7-dimethylocta-2,6-dienoate] it was 28.8 ± 1.31%; in that of `CC(C)=CCC/C(C)=C/C(=O)Oc1cccc(F)c1` [5l, 3-fluorophenyl (E)-3,7-dimethylocta-2,6-dienoate], 34.9 ± 3.3%; in that of `CC(C)=CCC/C(C)=C/C(=O)Oc1ccc(F)cc1` [5m, 4-fluorophenyl (E)-3,7-dimethylocta-2,6-dienoate], 27.9 ± 2.85%.
In the case of `CC(C)=CCC/C(C)=C/C(=O)Oc1ccccc1[N+](=O)[O-]` [5n, 2-nitrophenyl (E)-3,7-dimethylocta-2,6-dienoate] it was 23.4 ± 2.35%; in that of `CC(C)=CCC/C(C)=C/C(=O)Oc1cccc([N+](=O)[O-])c1` [5o, 3-nitrophenyl (E)-3,7-dimethylocta-2,6-dienoate], 41.5 ± 1.49%.
Regarding `CC(C)=CCC/C(C)=C/C(=O)Oc1ccc([N+](=O)[O-])cc1` [5p, 4-nitrophenyl (E)-3,7-dimethylocta-2,6-dienoate], the pest or weed control at 2000 µg/mL is 39.8 ± 1.95%.
On to `CC(C)=CCC/C(C)=C/C(=O)Oc1ccccc1Br` [5q, 2-bromophenyl (E)-3,7-dimethylocta-2,6-dienoate], for which the pest or weed control at 2000 µg/mL came out at 42.7 ± 1.36%.
Regarding `CC(C)=CCC/C(C)=C/C(=O)Oc1cccc(Br)c1` [5r, 3-bromophenyl (E)-3,7-dimethylocta-2,6-dienoate], the pest or weed control at 2000 µg/mL worked out at 51.2 ± 1.94%.
For `CC(C)=CCC/C(C)=C/C(=O)Oc1ccc(Br)cc1` [5s, 4-bromophenyl (E)-3,7-dimethylocta-2,6-dienoate], the pest or weed control at 2000 µg/mL was 43.4%.
In the case of `CC(C)=CCC/C(C)=C/C(=O)Oc1ccccc1OC(F)(F)F` [5t, 2-(trifluoromethoxy)phenyl (E)-3,7-dimethylocta-2,6-dienoate], the pest or weed control at 2000 µg/mL came to 28.2 ± 1.55%.
In the case of `CC(C)=CCC/C(C)=C/C(=O)Oc1cccc(OC(F)(F)F)c1` [5u, 3-(trifluoromethoxy)phenyl (E)-3,7-dimethylocta-2,6-dienoate] it was 38 ± 2.54%; in that of `CC(C)=CCC/C(C)=C/C(=O)Oc1ccc(OC(F)(F)F)cc1` [5v, 4-(trifluoromethoxy)phenyl (E)-3,7-dimethylocta-2,6-dienoate], 24.9 ± 2.52%; in that of `CC(C)=CCC/C(C)=C/C(=O)Oc1c(F)cccc1F` [5w, 2,6-difluorophenyl (E)-3,7-dimethylocta-2,6-dienoate], 36.7%.
Regarding `CC(C)=CCC/C(C)=C/C(=O)Oc1c(Br)cccc1Br` [5x, 2,6-dibromophenyl (E)-3,7-dimethylocta-2,6-dienoate], the pest or weed control at 2000 µg/mL amounted to 43.9 ± 2.09%.
In the case of `CC(C)=CCC/C(C)=C/COC(=O)c1ccc(Br)cc1` [CAU14, reference compound] it was 33.5%; in that of `CC(C)=CCC/C(C)=C/COC(=O)c1c(F)cccc1F` [CAU15, reference compound], 18.3%.
